Measurements as given in EPA's ToxRefDB 2.

Key:
dog [1] = details: Subchronic oral toxicity in nonrodent, beagle, Gavage/Intubation, dose end: 6 week, group: systemic
rat [2] = details: Subchronic oral toxicity in rodents, sprague dawley, Gavage/Intubation, dose end: 6 week, group: systemic
rat [3] = details: Combined chronic toxicity/carcinogenicity; fischer; Oral; Feed; dose end: 2 year; group: systemic; systemic / pathology microscopic / liver / degeneration + systemic / pathology microscopic / liver / hyperplasia + systemic / pathology …
rat [4] = details: Subchronic oral toxicity in rodents, fischer, Feed, dose end: 13 week, group: systemic
mouse [5] = details: Subchronic oral toxicity in rodents, b6c3f1, Feed, dose end: 13 week, group: systemic, systemic / in life observation / body weight / body weight
mouse [6] = details: Carcinogenicity, b6c3f1, Oral, Feed, dose end: 2 year, group: systemic
rat [7] = details: Prenatal developmental toxicity study, wistar, Oral, Gavage/Intubation, dose end: 16 GD
dog [8] = details: Subchronic oral toxicity in nonrodent, beagle, Capsule, dose end: 90 day, group: systemic
rat [9] = details: Combined chronic toxicity/carcinogenicity, wistar, Oral, Feed, dose end: 104 week, group: systemic
rat [10] = details: Prenatal developmental toxicity study, wistar, Oral, Gavage/Intubation, dose end: 16 GD; remark: listed apart in the source
rabbit = details: Prenatal developmental toxicity study; new zealand white; Oral; Gavage/Intubation; dose end: 19 GD; group: maternal; reproductive / reproductive performance / aborted / aborted + reproductive / reproductive performance / resorptions / resorptions + systemic…
hamster [11] = details: Subchronic oral toxicity in rodents, golden syrian, Feed, dose end: 13 week, group: systemic
hamster [12] = details: Subchronic oral toxicity in rodents, golden syrian, Feed, dose end: 90 day, group: systemic, systemic / clinical chemistry / cholesterol / cholesterol + systemic / clinical chemistry / creatinine / creatinine + systemic / clinical …
rat [13] = details: Subchronic oral toxicity in rodents, wistar, Feed, dose end: 90 day, group: systemic, systemic / hematology / erythrocyte (rbc) count differential / erythrocyte (rbc) + systemic / hematology / hematocrit (hct) / hematocrit (…
hamster [14] = details: Carcinogenicity, golden syrian, Oral, Feed, dose end: 80 week, group: systemic
dog [15] = details: Chronic toxicity, beagle, Oral, Capsule, dose end: 52 week, group: systemic
mouse [16] = details: Combined chronic toxicity/carcinogenicity; other; Oral; Gavage/Intubation; dose end: 10 month; group: systemic; systemic / pathology microscopic / liver / neoplastic nodule + systemic / pathology microscopic / liver / dysplasia
rat [17] = details: Chronic toxicity, sprague dawley, Oral, Gavage/Intubation, dose end: 39 week, group: systemic
dog [18] = details: Chronic toxicity, beagle, Oral, Capsule, dose end: 40 week, group: systemic
rat [19] = details: Sub-acute repeat dose toxicity, wistar, Oral, Gavage/Intubation, dose end: 28 day
rat [20] = details: Sub-acute repeat dose toxicity, other, Oral, Gavage/Intubation, dose end: 30 day
[21] = systemic / in life observation / clinical signs / feces, discoloration + systemic / in life observation / clinical signs / salivation + …
[22] = systemic / in life observation / clinical signs / salivation + systemic / organ weight / epididymis / absolute + systemic / organ weight / …
[23] = systemic / clinical chemistry / bilirubin / total bilirubin + systemic / hematology / neutrophils / neutrophils + systemic / in life …
[24] = systemic / in life observation / body weight / body weight + systemic / in life observation / body weight / body weight gain + systemic / in…
[25] = systemic / in life observation / body weight / body weight
[26] = systemic / in life observation / body weight / body weight + systemic / in life observation / food consumption / food consumption + systemic…
[27] = systemic / pathology microscopic / liver / necrosis
[28] = systemic / pathology microscopic / liver / necrosis + systemic / pathology microscopic / liver / adenoma/carcinoma combined + systemic / …
[29] = group: developmental, developmental / developmental malformation / bone / incomplete ossification + developmental / developmental malformation / bone / [other] + …
[30] = group: maternal, systemic / in life observation / body weight / body weight + systemic / in life observation / food consumption / food consumption + systemic…
[31] = systemic / clinical chemistry / aminopyrine-n-demethylase / aminopyrine-n-demethylase
[32] = systemic / in life observation / body weight / body weight gain + systemic / in life observation / food consumption / food consumption + …
[33] = group: developmental, developmental / developmental malformation / bone / bipartite ossification + developmental / developmental malformation / bone / delayed …
[34] = group: maternal, systemic / in life observation / food consumption / food consumption + systemic / in life observation / mortality / mortality + reproductive…
[35] = systemic / in life observation / body weight / body weight gain + systemic / organ weight / liver / absolute + systemic / clinical chemistry…
[36] = systemic / pathology microscopic / liver / adenoma + systemic / pathology microscopic / liver / hemangioma + systemic / pathology …
[37] = systemic / pathology microscopic / ovary / sex cord stromal tumor, benign
[38] = systemic / clinical chemistry / alanine aminotransferase (alt/sgpt) / alanine aminotransferase (alt/sgpt) + systemic / organ weight / liver…
[39] = systemic / organ weight / [other] / absolute + systemic / organ weight / [other] / relative to body weight + systemic / pathology gross / …
[40] = systemic / in life observation / body weight / body weight gain + systemic / pathology gross / liver / fat vacuolation + systemic / …
[41] = systemic / pathology microscopic / blood / [other] + systemic / clinical chemistry / alanine aminotransferase (alt/sgpt) / alanine …
[42] = group: maternal, reproductive / reproductive performance / estrous cycle / abnormal
[43] = group: systemic, systemic / clinical chemistry / albumin / albumin + systemic / clinical chemistry / cholesterol / cholesterol + systemic / clinical …
[44] = group: systemic, systemic / clinical chemistry / cholesterol / cholesterol + systemic / clinical chemistry / thyroid stimulating hormone (thyrotropin) (tsh…
[45] = group: maternal, reproductive / reproductive performance / estrous cycle / abnormal + reproductive / reproductive performance / estrous cycle / length
[46] = group: maternal, reproductive / reproductive performance / estrous cycle / length
[47] = group: systemic, systemic / clinical chemistry / follicle stimulating hormone (fsh) / follicle stimulating hormone (fsh) + systemic / in life observation / …
[48] = group: systemic, systemic / organ weight / adrenal gland / relative to body weight + systemic / organ weight / ovary / relative to body weight + systemic / …

N#Cc1ccc(N(CC(N)=O)CC(F)(F)F)cc1C(F)(F)F
LOAEL (dog [1]; [21]): > 3 mg/kg/day | NOAEL (dog [1]; [21]): ≥ 3 mg/kg/day | LEL (dog [1]; [22]): 0.3 mg/kg/day | NEL (dog [1]; [22]): < 0.3 mg/kg/day | LOAEL (rat [2]; [23]): > 30 mg/kg/day | NOAEL (rat [2]; [23]): ≥ 30 mg/kg/day | LEL (rat [2]; [24]): 1 mg/kg/day | NEL (rat [2]; [24]): < 1 mg/kg/day

O=C(O)C1C(C(=O)O)C2(Cl)C(Cl)=C(Cl)C1(Cl)C2(Cl)Cl (stereo not drawn) [Chlorendic acid]
LEL (rat [3]): 27 mg/kg/day | LOAEL (rat [3]): 27 mg/kg/day | NEL (rat [3]): < 27 mg/kg/day | NOAEL (rat [3]): < 27 mg/kg/day | LEL (rat [4]; [25]): 63 mg/kg/day | LOAEL (rat [4]; [25]): 63 mg/kg/day | NEL (rat [4]; [26]): 31 mg/kg/day | NOAEL (rat [4]; [26]): 31 mg/kg/day | LEL (mouse [5]): 188 mg/kg/day | LOAEL (mouse [5]): 188 mg/kg/day | NEL (mouse [5]): < 188 mg/kg/day | NOAEL (mouse [5]): < 188 mg/kg/day | LOAEL (mouse [6]; [27]): 89 mg/kg/day | NOAEL (mouse [6]; [27]): < 89 mg/kg/day | LEL (mouse [6]; [28]): 89 mg/kg/day | NEL (mouse [6]; [28]): < 89 mg/kg/day

CCO/N=C(\CC)C1=C(O)CC(c2c(C)cc(C)cc2C)CC1=O (stereo not drawn) [Tralkoxydim]
LOAEL (rat [7]; group: developmental, developmental / developmental malformation / bone / incomplete ossification): 30 mg/kg/day | LEL (rat [7]; group: developmental, developmental / developmental malformation / bone / incomplete ossification + developmental / developmental malformation / bone / [other]): 30 mg/kg/day | NEL (rat [7]; [29]): 3 mg/kg/day | NOAEL (rat [7]; [29]): 3 mg/kg/day | LEL (rat [7]; [30]): 200 mg/kg/day | LOAEL (rat [7]; [30]): 200 mg/kg/day | LEL (dog [8]; [31]): 0.5 mg/kg/day | LOAEL (dog [8]; [31]): 5 mg/kg/day | NEL (dog [8]; [31]): < 0.5 mg/kg/day | NOAEL (dog [8]; systemic / clinical chemistry / aminopyrine-n-demethylase / aminopyrine-n-demethylase + systemic / clinical chemistry / albumin / albumin + …): 0.5 mg/kg/day | LOAEL (rat [9]; [32]): 118 mg/kg/day | NEL (rat [9]; [32]): 2.3 mg/kg/day | NOAEL (rat [9]; [32]): 23.1 mg/kg/day | LEL (rat [9]; systemic / pathology microscopic / pituitary gland / adenoma): 23.1 mg/kg/day | LOAEL (rat [10]; [33]): 30 mg/kg/day | NEL (rat [10]; [33]): 1 mg/kg/day | NOAEL (rat [10]; [33]): 3 mg/kg/day | LEL (rat [10]; group: developmental, developmental / developmental malformation / bone / delayed ossification): 3 mg/kg/day | LOAEL (rat [10]; group: maternal, systemic / in life observation / food consumption / food consumption + systemic / in life observation / mortality / mortality): 200 mg/kg/day | LEL (rat [10]; [34]): 200 mg/kg/day | NEL (rat [10]; [34]): 30 mg/kg/day | NOAEL (rat [10]; [34]): 30 mg/kg/day | LEL (rabbit): 100 mg/kg/day | LOAEL (rabbit): 100 mg/kg/day | NEL (rabbit): 20 mg/kg/day | NOAEL (rabbit): 20 mg/kg/day | LOAEL (hamster [11]; systemic / in life observation / body weight / body weight gain + systemic / organ weight / liver / absolute): 650 mg/kg/day | NEL (hamster [11]; [35]): 122 mg/kg/day | NOAEL (hamster [11]; [35]): 328 mg/kg/day | LEL (hamster [11]; systemic / pathology microscopic / liver / proliferation): 328 mg/kg/day | LEL (hamster [12]): 337 mg/kg/day | LOAEL (hamster [12]): 337 mg/kg/day | NEL (hamster [12]): 41 mg/kg/day | NOAEL (hamster [12]): 41 mg/kg/day | LEL (rat [13]): 205 mg/kg/day | LOAEL (rat [13]): 205 mg/kg/day | NEL (rat [13]): 20.5 mg/kg/day | NOAEL (rat [13]): 20.5 mg/kg/day | LOAEL (hamster [14]; [36]): > 672 mg/kg/day | NOAEL (hamster [14]; [36]): ≥ 672 mg/kg/day | LEL (hamster [14]; [37]): 27.8 mg/kg/day | NEL (hamster [14]; [37]): < 27.8 mg/kg/day | LEL (dog [15]; [38]): 5 mg/kg/day | LOAEL (dog [15]; [38]): 5 mg/kg/day | NOAEL (dog [15]; [38]): 0.5 mg/kg/day | NEL (dog [15]; systemic / clinical chemistry / cholesterol / cholesterol + systemic / clinical chemistry / protein / protein + systemic / clinical …): 0.5 mg/kg/day

C[C@]12CCC(=O)C=C1CC[C@@H]1[C@@H]2CC[C@@]2(C)[C@H]1CC[C@]2(C)O [17-Methyltestosterone]
LEL (mouse [16]): 5 mg/kg/day | LOAEL (mouse [16]): > 5 mg/kg/day | NEL (mouse [16]): < 5 mg/kg/day | NOAEL (mouse [16]): ≥ 5 mg/kg/day | LOAEL (rat [17]; [39]): > 40 mg/kg/day | NEL (rat [17]; [39]): 2 mg/kg/day | NOAEL (rat [17]; [39]): ≥ 40 mg/kg/day | LEL (rat [17]; systemic / pathology gross / testes / reduced size + systemic / in life observation / body weight / body weight gain + systemic / in life …): 10 mg/kg/day | LOAEL (dog [18]; [40]): > 6 mg/kg/day | NOAEL (dog [18]; [40]): ≥ 6 mg/kg/day | LEL (dog [18]; [41]): 2 mg/kg/day | NEL (dog [18]; [41]): < 2 mg/kg/day | LEL (rat [19]; [42]): 100 mg/kg/day | LOAEL (rat [19]; [42]): > 600 mg/kg/day | NEL (rat [19]; [42]): 10 mg/kg/day | NOAEL (rat [19]; [42]): ≥ 600 mg/kg/day | LOAEL (rat [19]; [43]): > 200 mg/kg/day | NOAEL (rat [19]; [43]): ≥ 200 mg/kg/day | LEL (rat [19]; [44]): 10 mg/kg/day | NEL (rat [19]; [44]): < 10 mg/kg/day | LOAEL (rat [20]; [45]): > 80 mg/kg/day | NOAEL (rat [20]; [45]): ≥ 80 mg/kg/day | LEL (rat [20]; [46]): 5 mg/kg/day | NEL (rat [20]; [46]): < 5 mg/kg/day | LOAEL (rat [20]; [47]): > 80 mg/kg/day | NOAEL (rat [20]; [47]): ≥ 80 mg/kg/day | LEL (rat [20]; [48]): 5 mg/kg/day | NEL (rat [20]; [48]): < 5 mg/kg/day
